Source: patent US20080234262A1 (Wyeth, priority 2007, published 2008)

What was measured:
PI3K = PI3K (Homo sapiens, UniProt P42336); assay: Fluorescence polarization assay for PI3K; assay type: biochemical; details: PI3Kα; read-out: PI3Kα IC50;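 note: PI3K kinase reaction on PIP2 with ATP, 30-60 min, product sensed by GST-GRP with red probe in fluorescence polarization (mP), controls without enzyme and at zero time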
breast line MDA468 = assay: In vitro cell culture growth assay (MTS), MDA468; assay type: cell-based, human; details: MDA468 cells, three days after drug treatment
Outline: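 MDA468 or LNCap cells received inhibitors one day after plating and were grown for three days. Viable cell density read by MTS conversion, absorbance 490 nm, expressed as percent of control growth versus vehicle-treated cells on the same plate.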

prostate line LNCap = assay: In vitro cell culture growth assay (MTS), LNCap; assay type: cell-based, human; details: LNCap cells, three days after drug treatment

PI3K, sequence (P42336 whole entry): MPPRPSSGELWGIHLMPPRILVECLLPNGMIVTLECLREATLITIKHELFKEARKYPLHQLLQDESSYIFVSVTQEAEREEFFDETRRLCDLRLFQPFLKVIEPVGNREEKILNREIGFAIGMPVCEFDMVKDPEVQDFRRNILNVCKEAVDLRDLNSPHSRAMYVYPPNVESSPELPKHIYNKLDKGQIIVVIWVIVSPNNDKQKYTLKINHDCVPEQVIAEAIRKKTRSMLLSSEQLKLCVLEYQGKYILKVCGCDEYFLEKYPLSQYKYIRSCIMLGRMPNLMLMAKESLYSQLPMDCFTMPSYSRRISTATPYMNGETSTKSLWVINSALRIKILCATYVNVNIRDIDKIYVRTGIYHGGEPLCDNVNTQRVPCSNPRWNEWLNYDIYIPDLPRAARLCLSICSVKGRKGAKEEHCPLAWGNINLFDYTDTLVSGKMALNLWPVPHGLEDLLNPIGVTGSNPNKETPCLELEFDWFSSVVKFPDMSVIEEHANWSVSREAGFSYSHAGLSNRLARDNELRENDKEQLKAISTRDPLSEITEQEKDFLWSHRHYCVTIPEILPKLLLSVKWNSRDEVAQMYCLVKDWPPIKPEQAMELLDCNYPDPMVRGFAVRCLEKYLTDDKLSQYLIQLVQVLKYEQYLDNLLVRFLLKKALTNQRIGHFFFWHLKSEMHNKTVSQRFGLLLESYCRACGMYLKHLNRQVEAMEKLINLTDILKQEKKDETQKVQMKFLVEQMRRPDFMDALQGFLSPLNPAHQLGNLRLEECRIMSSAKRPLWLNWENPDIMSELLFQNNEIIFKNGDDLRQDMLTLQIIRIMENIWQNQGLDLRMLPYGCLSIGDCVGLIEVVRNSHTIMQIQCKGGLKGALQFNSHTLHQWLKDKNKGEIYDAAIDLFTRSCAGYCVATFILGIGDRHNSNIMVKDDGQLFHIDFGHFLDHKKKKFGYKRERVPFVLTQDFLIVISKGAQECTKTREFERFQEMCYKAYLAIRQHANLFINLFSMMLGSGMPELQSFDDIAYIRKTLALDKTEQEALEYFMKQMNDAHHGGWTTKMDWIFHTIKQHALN
PI3K, sequence (P27986 whole entry partner): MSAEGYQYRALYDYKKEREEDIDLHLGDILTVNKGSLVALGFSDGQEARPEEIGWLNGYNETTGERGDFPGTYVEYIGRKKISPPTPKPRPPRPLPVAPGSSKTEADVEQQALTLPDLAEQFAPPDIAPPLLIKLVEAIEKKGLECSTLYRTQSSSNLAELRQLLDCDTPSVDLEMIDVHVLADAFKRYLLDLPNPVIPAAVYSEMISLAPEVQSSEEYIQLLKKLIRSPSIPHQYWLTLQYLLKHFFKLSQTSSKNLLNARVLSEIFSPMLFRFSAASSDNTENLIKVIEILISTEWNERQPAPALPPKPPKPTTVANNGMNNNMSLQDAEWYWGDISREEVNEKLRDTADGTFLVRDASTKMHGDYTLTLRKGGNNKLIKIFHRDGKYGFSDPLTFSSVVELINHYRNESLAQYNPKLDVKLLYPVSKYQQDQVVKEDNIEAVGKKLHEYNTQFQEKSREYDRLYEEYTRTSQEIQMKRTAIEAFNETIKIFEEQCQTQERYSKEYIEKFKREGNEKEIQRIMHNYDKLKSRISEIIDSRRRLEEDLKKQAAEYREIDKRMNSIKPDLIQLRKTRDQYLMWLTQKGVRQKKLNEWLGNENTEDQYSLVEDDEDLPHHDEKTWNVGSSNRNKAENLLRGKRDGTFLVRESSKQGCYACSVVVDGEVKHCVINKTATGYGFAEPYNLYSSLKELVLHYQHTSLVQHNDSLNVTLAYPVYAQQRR

SMILES | IC50 (PI3K) | IC50 (prostate line LNCap) | IC50 (prostate line LNCap; Homo sapiens, LNCaP, 72 h) | IC50 (breast line MDA468) | IC50 (breast line MDA468; Homo sapiens, 72 h)
COC(=O)N1CCC(n2ncc3c(N4CCOCC4)nc(-c4ccc5[nH]ccc5c4)nc32)CC1 [Compound 494, methyl 4-[6-(1H-indol-5-yl)-4-morpholin-4-yl-1H-pyrazolo[3,4-d]pyrimidin-1-yl]piperidine-1-carboxylate] | 3300 nM |  | 750 nM |  | 2050 nM
Nc1ccc(-c2nc(N3CCOCC3)c3cnn(C4CCN(C(=O)c5cccnc5)CC4)c3n2)cn1 [Example 214, 5-{4-morpholin-4-yl-1-[1-(pyridin-3-ylcarbonyl)piperidin-4-yl]-1H-pyrazolo[3,4-d]pyrimidin-6-yl}pyridin-2-amine] | 109 nM |  | 570 nM |  | 1500 nM
CCOC(=O)N1CCC(n2ncc3c(N4CCOCC4)nc(-c4ccc(NC(=O)NC5CC5)cc4)nc32)CC1 [Compound 821, ethyl 4-(6-{4-[(cyclopropylcarbamoyl)amino]phenyl}-4-morpholin-4-yl-1H-pyrazolo[3,4-d]pyrimidin-1-yl)piperidine-1-carboxylate] | 1120 nM |  | < 27 nM |  | 140 nM
C=CCONC(=O)Nc1ccc(-c2nc(N3CCOCC3)c3cnn(-c4ccccc4)c3n2)cc1 [Compound 296, 1-(allyloxy)-3-[4-(4-morpholin-4-yl-1-phenyl-1H-pyrazolo[3,4-d]pyrimidin-6-yl)phenyl]urea] | 896 nM |  | 3000 nM |  | 60000 nM
O=C(Nc1cccnc1)Nc1ccc(-c2nc(N3CCOCC3)c3cnn(C4CCN(Cc5cccnc5)CC4)c3n2)cc1F [Example 373, 1-(2-fluoro-4-{4-morpholin-4-yl-1-[1-(pyridin-3-ylmethyl)piperidin-4-yl]-1H-pyrazolo[3,4-d]pyrimidin-6-yl}phenyl)-3-pyridin-3-ylurea] | 55 nM |  | 40 nM |  | 200 nM
O=CN1CCC(n2ncc3c(N4CCOCC4)nc(-c4ccc5[nH]ccc5c4)nc32)CC1 [Compound 251, 4-[6-(1H-indol-5-yl)-4-morpholin-4-yl-1H-pyrazolo[3,4-d]pyrimidin-1-yl]piperidine-1-carbaldehyde] | 2800 nM |  | 1000 nM |  | 3000 nM
CNC(=O)Nc1ccc(-c2nc(N3CCOCC3)c3cnn(C4CCN(C(=O)N5CCN(C)CC5)CC4)c3n2)cc1 [Example 334, 1-methyl-3-[4-(1-{1-[(4-methylpiperazin-1-yl)carbonyl]piperidin-4-yl}-4-morpholin-4-yl-1H-pyrazolo[3,4-d]pyrimidin-6-yl)phenyl]urea] | 71 nM |  | 400 nM |  | 700 nM
COC(=O)N1CCC(n2ncc3c(N4CCOC(C)C4)nc(-c4ccc(NC(=O)NCCO)cc4)nc32)CC1 (stereo not drawn) [Compound 845, methyl 4-[6-(4-{[(2-hydroxyethyl)carbamoyl]amino}phenyl)-4-(2-methylmorpholin-4-yl)-1H-pyrazolo[3,4-d]pyrimidin-1-yl]piperidine-1-carboxylate] | 402 nM |  | 1100 nM |  | 1600 nM
c1cc2cc(-c3nc(N4CCOCC4)c4cnn(C5CCC(N6CCCC6)CC5)c4n3)ccc2[nH]1 (stereo not drawn) [Compound 151] | 1270 nM |  | 520 nM |  | 2300 nM
COC(=O)Nc1ccc(-c2nc(N3CCOCC3)c3cnn(C4CCN(CCCCO)CC4)c3n2)cc1 [Compound 744, methyl (4-{1-[1-(4-hydroxybutyl)piperidin-4-yl]-4-morpholin-4-yl-1H-pyrazolo[3,4-d]pyrimidin-6-yl}phenyl)carbamate] | 1050 nM |  | 3500 nM |  | 10200 nM
Nc1cccc(-c2nc(N3CCOCC3)c3cnn(C4CCN(C(=O)c5cccnc5)CC4)c3n2)n1 [Compound 436, 6-{4-morpholin-4-yl-1-[1-(pyridin-3-ylcarbonyl)piperidin-4-yl]-1H-pyrazolo[3,4-d]pyrimidin-6-yl}pyridin-2-amine] | 4990 nM |  | 9800 nM |  | 25000 nM
Nc1ccc(-c2nc(N3CCOCC3)c3cnn(C4CCN(C(=O)c5cccnc5)CC4)c3n2)c(F)c1 [Compound 460, 3-fluoro-4-{4-morpholin-4-yl-1-[1-(pyridin-3-ylcarbonyl)piperidin-4-yl]-1H-pyrazolo[3,4-d]pyrimidin-6-yl}aniline] | 4030 nM |  | 4900 nM |  | 14000 nM
O=C(NCCCc1ccccc1)Nc1ccc(-c2nc(N3CCOCC3)c3cnn(C4CCN(Cc5ccccc5)CC4)c3n2)cc1 [Compound 506, 1-{4-[1-(1-benzylpiperidin-4-yl)-4-morpholin-4-yl-1H-pyrazolo[3,4-d]pyrimidin-6-yl]phenyl}-3-(3-phenylpropyl)urea] | 7030 nM |  | 4500 nM |  | > 60000 nM
c1ccc(CN2CCC(n3ncc4c(N5CCOCC5)nc(-c5ccc(NCCN6CCOCC6)nc5)nc43)CC2)cc1 [Compound 193] | 8250 nM |  | 10000 nM |  | 12000 nM

More lines, main results first:

IC50 (PI3K) | IC50 (prostate line LNCap) | IC50 (prostate line LNCap; Homo sapiens, LNCaP, 72 h) | SMILES | IC50 (breast line MDA468) | IC50 (breast line MDA468; Homo sapiens, 72 h)
118 nM | 330 nM |  | CNC(=O)Nc1ccc(-c2nc(N3CCOCC3)c3cnn(C4CCN(C(=O)c5ccc(C)nc5)CC4)c3n2)cc1 [Compound 664, 1-methyl-3-[4-(1-{1-[(6-methylpyridin-3-yl)carbonyl]piperidin-4-yl}-4-morpholin-4-yl-1H-pyrazolo[3,4-d]pyrimidin-6-yl)phenyl]urea] | 270 nM | 
60 nM |  | < 27 nM | CCOC(=O)N1CCC(n2ncc3c(N4CCOCC4)nc(-c4ccc(NC(=O)Nc5cccnc5)cc4)nc32)CC1 [Compound 816, ethyl 4-(4-morpholin-4-yl-6-{4-[(pyridin-3-ylcarbamoyl)amino]phenyl}-1H-pyrazolo[3,4-d]pyrimidin-1-yl)piperidine-1-carboxylate] |  | < 27 nM
2620 nM |  | 430 nM | COC(=O)Nc1ccc(-c2nc(N3CCOCC3)c3cnn(C4CCN(C(=O)N(C)C)CC4)c3n2)cc1 [Compound 808, methyl (4-{1-[1-(dimethylcarbamoyl)piperidin-4-yl]-4-morpholin-4-yl-1H-pyrazolo[3,4-d]pyrimidin-6-yl}phenyl)carbamate] |  | 690 nM
341 nM |  | 220 nM | CCCNC(=O)Nc1ccc(-c2nc(N3CCOCC3)c3cnn(C4CCN(Cc5ccccc5)CC4)c3n2)cc1 [Compound 500, 1-{4-[1-(1-benzylpiperidin-4-yl)-4-morpholin-4-yl-1H-pyrazolo[3,4-d]pyrimidin-6-yl]phenyl}-3-propylurea] |  | 1500 nM
6470 nM |  | 11000 nM | CN(C)c1ccc(CC(=O)Nc2ccc(-c3nc(N4CCOCC4)c4cnn(C5CCCCO5)c4n3)cc2)cc1 (stereo not drawn) [Compound 522, 2-[4-(dimethylamino)phenyl]-N-{4-[4-morpholin-4-yl-1-(tetrahydro-2H-pyran-2-yl)-1H-pyrazolo[3,4-d]pyrimidin-6-yl]phenyl}acetamide] |  | > 60000 nM
20 nM |  | 30 nM | CNC(=O)Nc1ccc(-c2nc(N3CCOCC3)c3cnn(C4CCN(C(=O)OCc5ccccc5)CC4)c3n2)cc1 [Compound 880, benzyl 4-(6-{4-[(methylcarbamoyl)amino]phenyl}-4-morpholin-4-yl-1H-pyrazolo[3,4-d]pyrimidin-1-yl)piperidine-1-carboxylate] |  | 220 nM
124 nM |  | 120 nM | CNC(=O)Nc1ccc(-c2nc(N3CCOCC3)c3cnn(C4CCN(C(=O)c5ccccn5)CC4)c3n2)cc1 [Example 418, 1-methyl-3-(4-{4-morpholin-4-yl-1-[1-(pyridin-2-ylcarbonyl)piperidin-4-yl]-1H-pyrazolo[3,4-d]pyrimidin-6-yl}phenyl)urea] |  | 200 nM
571 nM |  | 3500 nM | CC(C)C(=O)N1CCC(n2ncc3c(N4CCOCC4)nc(-c4ccc(NC(=O)NCCO)cc4)nc32)CC1 [Compound 823, 1-(2-hydroxyethyl)-3-{4-[1-(1-isobutyrylpiperidin-4-yl)-4-morpholin-4-yl-1H-pyrazolo[3,4-d]pyrimidin-6-yl]phenyl}urea] |  | 320 nM
119 nM |  | 140 nM | CNC(=O)Nc1ccc(-c2nc(N3CCOCC3)c3cnn(C4CCN(C(=O)OCCOC)CC4)c3n2)cc1 [Compound 800, 2-methoxyethyl 4-(6-{4-[(methylcarbamoyl)amino]phenyl}-4-morpholin-4-yl-1H-pyrazolo[3,4-d]pyrimidin-1-yl)piperidine-1-carboxylate] |  | 260 nM
273 nM |  | 680 nM | CCONC(=O)Nc1ccc(-c2nc(N3CCOCC3)c3cnn(C4CCN(Cc5ccccc5)CC4)c3n2)cc1 [Example 287, 1-{4-[1-(1-benzylpiperidin-4-yl)-4-morpholin-4-yl-1H-pyrazolo[3,4-d]pyrimidin-6-yl]phenyl}-3-ethoxyurea] |  | 200 nM
48 nM |  | 1200 nM | CNCCNC(=O)Nc1ccc(-c2nc(N3CCOCC3)c3cnn(C4CCN(C(=O)c5ccccc5)CC4)c3n2)cc1 [Example 386, 1-{4-[1-(1-benzoylpiperidin-4-yl)-4-morpholin-4-yl-1H-pyrazolo[3,4-d]pyrimidin-6-yl]phenyl}-3-[2-(methylamino)ethyl]urea] |  | 1400 nM
28 nM |  | 27 nM | COC(=O)N1CCC(n2ncc3c(N4CCOCC4)nc(-c4ccc(NC(=O)Nc5ccc(F)cc5)cc4)nc32)CC1 [Compound 859, methyl 4-[6-(4-{[(4-fluorophenyl)carbamoyl]amino}phenyl)-4-morpholin-4-yl-1H-pyrazolo[3,4-d]pyrimidin-1-yl]piperidine-1-carboxylate] |  | 78 nM
250 nM |  | 190 nM | O=C(NCCF)Nc1ccc(-c2nc(N3CCOCC3)c3cnn(-c4ccccc4)c3n2)cc1 [Compound 540, 1-(2-fluoroethyl)-3-[4-(4-morpholin-4-yl-1-phenyl-1H-pyrazolo[3,4-d]pyrimidin-6-yl)phenyl]urea] |  | 900 nM
